In ChEMBL document CHEMBL6177994 (J Med Chem, 2025):
Activity calls are given as the source filed them. The rule behind the calls is not given here.

Assays:
[1] = system: PSN1; assay: Antiproliferative activity against human PSN1 cells harbouring KRAS G12R mutant assessed as inhibition of cell growth measured after 72 hrs by Cell titer glo method; format: functional, cell-based
[2] = Antitumor activity against human GP2d cells xenografted in female Balb/c nude mouse model assessed as tumor growth inhibition at 10 mg/kg, iv QW administered weekly and measured after 28 days relative to control; format: functional; conditions: 672 h, time 28 day, read-out: TGI
[3] = target: Protein cereblon/Eukaryotic peptide chain release factor GTP-binding subunit ERF3A (Homo sapiens) (UniProt Q96SW2+P15170); assay: PROTAC activity at CRBN/GSPT1 in human ASPC1 cells assessed as induction of GSPT1 degradation at 10 to 1000 nM measured after 24 hrs by immunoblot analysis; format: cell-based; conditions: dose 10-1000 nM
[4] = system: Protein cereblon/GTPase KRas (Homo sapiens), P01116+Q96SW2 [G12D]; assay: In vivo PROTAC activity at CRBN/KRAS G12D mutant in male Balb/c nude mouse xenografted with human PK-59 cells assessed as reduction in DUSP4 level in tumor at 10 mg/kg, iv measured after 6 hrs relative to control; format: functional, organism-based; design: scale not given: the % may be the effect or the level left
[5] = Stability in human plasma assessed as half life at 1 uM measured up to 120 mins by LC-MS/MS analysis; format: ADME, cell-free
[6] = target: Protein cereblon/GTPase NRas (Homo sapiens) (UniProt P01111+Q96SW2); assay: PROTAC activity at CRBN/NRAS in human MKN-1 cells assessed as induction of […] 0.061 to 1000 nM measured after 24 hrs by immunoblot analysis; format: cell-based; conditions: dose 0.061-1000 nM
[7] = Clearance in male ICR mouse at 1 mg/kg, iv measured up to 24 hrs by LC-MS/MS analysis; format: ADME, organism-based; conditions: in vivo
[8] = system: Protein cereblon/GTPase KRas (Homo sapiens), P01116+Q96SW2 [G12D]; assay: In vivo PROTAC activity at CRBN/KRAS G12D mutant in male Balb/c nude mouse xenografted with human GP2d cells assessed as degradation of KRAS G12D mutant at 10 mg/kg, iv measured after 7 days relative to control; format: functional, organism-based; conditions: time 7.0 day
[9] = system: Protein cereblon/GTPase KRas (Homo sapiens), P01116+Q96SW2 [G12D]; assay: PROTAC activity at CRBN/KRAS G12D mutant in human ASPC1 cells assessed as induction of KRAS G12D mutant degradation at 5 nM measured after 24 hrs by immunoblot analysis relative to control; format: cell-based
[10] = Inhibition of Raf (unknown origin)/GTP loaded KRas G12D mutant interaction preincubated for 15 mins followed by anti-tag1-eu3 and Tag2-XL665 antibody addition and measured for 120 mins by HTRF method; design: species or system Homo sapiens
[11] = Antitumor activity against human PK-59 cells xenografted in female Balb/c nude mouse model assessed as tumor growth inhibition at 0.1 mg/kg, iv QW measured after 28 days relative to control; format: functional; conditions: PK-59, 672 h, time 28 day, read-out: TGI
[12] = system: SNU-407; assay: Antiproliferative activity against human SNU-407 cells harbouring KRAS G12D mutant assessed as inhibition of cell growth measured after 72 hrs by Cell titer glo method; format: functional, cell-based
[13] = Antiproliferative activity against human GP2d cells harbouring KRAS G12D mutant assessed as inhibition of cell growth measured after 72 hrs by Cell titer glo method; format: functional, cell-based
[14] = target: Cytochrome P450 2C19 (Homo sapiens, UniProt P33261); assay: Inhibition of CYP2C19 in human liver microsomes using S-mephenytoin as substrate at 10 uM incubated for 15 mins in presence of NADPH by LC/MS analysis; format: ADME, Microsome; conditions: 0.25 h
[15] = system: Protein cereblon/GTPase KRas (Homo sapiens), P01116+Q96SW2 [G12D]; assay: In vivo PROTAC activity at CRBN/KRAS G12D mutant in male Balb/c nude mouse xenografted with human PK-59 cells assessed as reduction in ERK phosphorylation level in tumor at 10 mg/kg, iv measured up to 168 hrs; format: functional, organism-based
[16] = Plasma protein binding in dog at 2 uM by LC-MS/MS analysis; format: ADME, cell-free, Canis lupus familiaris; conditions: read-out: PPB
[17] = system: HEK293; assay: Antiproliferative activity against HEK293 cells harbouring wild type KRAS assessed as inhibition of cell growth measured after 72 hrs by Cell titer glo method; format: toxicity, cell-based; conditions: human, hek293, 72 h
[18] = Plasma protein binding in human at 2 uM by LC-MS/MS analysis; format: ADME, cell-free; conditions: read-out: PPB
[19] = Volume of distribution at steady state in male ICR mouse at 1 mg/kg, iv measured up to 24 hrs by LC-MS/MS analysis; format: ADME, organism-based; conditions: in vivo, read-out: Vdss
[20] = system: ASPC1; assay: Antitumor activity against human ASPC1 cells harbouring KRAS G12D mutant xenografted in female Balb/c nude mouse model assessed as tumor regression at 1 to 20 mg/kg, iv QW administered weekly and measured after 28 days; format: functional, organism-based; conditions: dose 1-20 mg/kg, time 28.0 day
[21] = Antitumor activity against human GP2d cells xenografted in female Balb/c nude mouse model assessed as tumor growth inhibition at 10 mg/kg, iv QW administered […] and measured after 28 days relative to control; format: functional; conditions: 672 h, time 28 day, read-out: TGI
[22] = Drug concentration in male Balb/c nude mouse plasma xenografted with human PK-59 cells at 10 mg/kg, iv administered as single dose measured after 6 hrs by LC-MS/MS analysis; format: ADME, organism-based
[23] = target: Cytochrome P450 1A2 (Homo sapiens, UniProt P05177); assay: Inhibition of CYP1A2 in human liver microsomes using phenacetin as substrate at 10 uM incubated for 15 mins in presence of NADPH by LC/MS analysis; format: ADME, Microsome; conditions: 0.25 h
[24] = Antitumor activity against human PK-59 cells xenografted in female Balb/c nude mouse model assessed as tumor growth inhibition at 3 mg/kg, iv QW measured after 28 days relative to control; format: functional; conditions: PK-59, 672 h, time 28 day, read-out: TGI
[25] = system: Protein cereblon/GTPase KRas (Homo sapiens), P01116+Q96SW2 [G12D]; assay: PROTAC activity at CRBN/KRAS G12D mutant in human ASPC1 cells assessed as induction of KRAS G12D mutant degradation at 1 nM measured up to 36 hrs by immunoblot analysis; format: cell-based
[26] = Antitumor activity against human GP2d cells xenografted in female Balb/c nude mouse model assessed as tumor growth inhibition at 3 mg/kg, iv QW measured after 28 days relative to control; format: functional; conditions: 672 h, time 28 day, read-out: TGI
[27] = system: Protein cereblon/GTPase KRas (Homo sapiens), P01116+Q96SW2 [G12D]; assay: In vivo PROTAC activity at CRBN/KRAS G12D mutant in male Balb/c nude mouse xenografted with human PK-59 cells assessed as reduction in DUSP4 level in tumor at 10 mg/kg, iv measured up to 168 hrs relative to control; format: functional, organism-based; design: scale not given: the % may be the effect or the level left
[28] = Elimination half life in male ICR mouse colon at 10 mg/kg, iv measured up to 336 hrs by LC-MS/MS analysis; format: ADME, organism-based; conditions: read-out: beta t1/2 (converted)
[29] = Drug concentration in male Balb/c nude mouse tumor xenografted with human PK-59 cells at 10 mg/kg, iv administered as single dose measured after 6 hrs by LC-MS/MS analysis; format: ADME, organism-based, Neoplasm; conditions: read-out: Ct
[30] = system: CCRF-CEM; assay: Antitumor activity against human CCRF-CEM cells harbouring KRAS G12D mutant xenografted in female Balb/c nude mouse model assessed as tumor regression at 1 to 10 mg/kg, iv QW administered weekly and measured after 28 days; format: functional, organism-based; conditions: dose 1-10 mg/kg, time 28.0 day
[31] = Inhibition of ERK phosphorylation in human PK-59 cells harbouring KRAS G12D mutant measured after 24 hrs; format: cell-based; conditions: PK-59, 24 h

Sequence of Protein cereblon/GTPase KRas (Homo sapiens), P01116+Q96SW2 [G12D] (P01116 whole entry G12D): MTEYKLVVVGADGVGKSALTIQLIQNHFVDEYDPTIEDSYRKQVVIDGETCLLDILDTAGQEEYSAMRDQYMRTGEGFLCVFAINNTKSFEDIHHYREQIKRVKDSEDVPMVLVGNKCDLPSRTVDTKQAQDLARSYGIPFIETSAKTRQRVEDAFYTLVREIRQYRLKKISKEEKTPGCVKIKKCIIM
Sequence of Protein cereblon/GTPase KRas (Homo sapiens), P01116+Q96SW2 [G12D] (Q96SW2 whole entry partner): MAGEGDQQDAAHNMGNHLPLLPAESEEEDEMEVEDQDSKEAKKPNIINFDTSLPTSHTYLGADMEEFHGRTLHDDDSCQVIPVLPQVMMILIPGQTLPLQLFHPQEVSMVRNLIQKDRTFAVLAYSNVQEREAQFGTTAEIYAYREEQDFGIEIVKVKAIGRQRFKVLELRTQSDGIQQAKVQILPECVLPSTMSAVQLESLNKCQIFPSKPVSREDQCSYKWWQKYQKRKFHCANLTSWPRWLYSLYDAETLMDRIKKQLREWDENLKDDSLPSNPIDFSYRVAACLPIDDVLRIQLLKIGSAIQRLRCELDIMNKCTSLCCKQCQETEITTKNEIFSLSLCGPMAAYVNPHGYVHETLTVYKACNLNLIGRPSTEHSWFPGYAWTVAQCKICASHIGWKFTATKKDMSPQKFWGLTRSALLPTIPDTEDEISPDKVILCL
Sequence of Protein cereblon/GTPase NRas (Homo sapiens) (P01111 whole entry, looked up): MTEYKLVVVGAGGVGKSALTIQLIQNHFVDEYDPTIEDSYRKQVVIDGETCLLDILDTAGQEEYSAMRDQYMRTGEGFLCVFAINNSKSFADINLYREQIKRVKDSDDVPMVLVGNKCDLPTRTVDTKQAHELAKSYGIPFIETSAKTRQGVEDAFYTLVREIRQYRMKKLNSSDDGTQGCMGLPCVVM
Sequence of Protein cereblon/GTPase NRas (Homo sapiens) (Q96SW2 whole entry, looked up): as the sequence (Q96SW2 whole entry partner) above
Sequence of Cytochrome P450 1A2 (P05177 whole entry): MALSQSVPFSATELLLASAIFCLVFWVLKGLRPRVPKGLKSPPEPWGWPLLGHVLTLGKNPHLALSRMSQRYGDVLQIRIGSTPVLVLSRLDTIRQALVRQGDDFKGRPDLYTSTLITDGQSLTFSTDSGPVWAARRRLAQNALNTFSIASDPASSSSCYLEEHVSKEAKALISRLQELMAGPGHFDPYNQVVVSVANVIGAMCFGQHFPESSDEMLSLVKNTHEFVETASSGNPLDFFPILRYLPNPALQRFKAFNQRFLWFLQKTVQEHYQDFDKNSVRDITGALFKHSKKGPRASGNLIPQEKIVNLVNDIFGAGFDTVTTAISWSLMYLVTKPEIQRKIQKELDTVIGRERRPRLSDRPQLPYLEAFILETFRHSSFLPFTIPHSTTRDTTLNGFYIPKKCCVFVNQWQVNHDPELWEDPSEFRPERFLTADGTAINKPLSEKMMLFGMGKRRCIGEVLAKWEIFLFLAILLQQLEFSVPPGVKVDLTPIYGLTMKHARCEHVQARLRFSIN
Sequence of Protein cereblon/Eukaryotic peptide chain release factor GTP-binding subunit ERF3A (Homo sapiens) (P15170 whole entry, looked up): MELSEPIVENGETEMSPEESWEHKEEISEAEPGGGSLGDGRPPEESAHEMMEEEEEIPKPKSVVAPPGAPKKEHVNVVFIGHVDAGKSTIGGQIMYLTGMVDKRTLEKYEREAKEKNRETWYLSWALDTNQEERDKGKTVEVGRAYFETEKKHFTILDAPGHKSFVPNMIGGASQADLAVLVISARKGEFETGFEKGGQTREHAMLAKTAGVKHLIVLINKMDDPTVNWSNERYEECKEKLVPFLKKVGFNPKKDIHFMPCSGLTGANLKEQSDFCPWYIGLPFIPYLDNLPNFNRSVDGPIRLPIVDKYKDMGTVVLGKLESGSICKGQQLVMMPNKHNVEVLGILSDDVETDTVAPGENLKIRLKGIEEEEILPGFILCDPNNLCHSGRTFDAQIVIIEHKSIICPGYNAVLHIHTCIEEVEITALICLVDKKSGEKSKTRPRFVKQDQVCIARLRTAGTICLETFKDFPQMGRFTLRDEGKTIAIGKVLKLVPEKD
Sequence of Protein cereblon/Eukaryotic peptide chain release factor GTP-binding subunit ERF3A (Homo sapiens) (Q96SW2 whole entry, looked up): as the sequence (Q96SW2 whole entry partner) above
Sequence of Cytochrome P450 2C19 (P33261 whole entry): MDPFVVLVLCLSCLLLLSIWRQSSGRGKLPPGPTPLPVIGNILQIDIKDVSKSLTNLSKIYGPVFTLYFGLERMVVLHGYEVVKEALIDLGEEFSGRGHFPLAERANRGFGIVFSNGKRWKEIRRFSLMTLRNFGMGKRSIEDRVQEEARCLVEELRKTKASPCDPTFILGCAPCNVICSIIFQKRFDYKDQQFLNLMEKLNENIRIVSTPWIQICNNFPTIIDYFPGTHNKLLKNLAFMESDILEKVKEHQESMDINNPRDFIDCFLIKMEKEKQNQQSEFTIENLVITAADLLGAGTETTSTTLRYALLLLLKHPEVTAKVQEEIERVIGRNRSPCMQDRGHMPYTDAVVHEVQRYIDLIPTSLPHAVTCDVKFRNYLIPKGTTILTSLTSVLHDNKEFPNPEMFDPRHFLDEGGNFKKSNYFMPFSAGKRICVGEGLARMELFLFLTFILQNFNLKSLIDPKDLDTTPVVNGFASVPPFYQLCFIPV

C#Cc1c(F)ccc2cc(O)cc(-c3ncc4c(N5CC6CCC(C5)N6)nc(OCC5(CN6CCC7(CC6)CC(N6CCC(c8cc9c(cc8F)c(N8CCC(=O)NC8=O)nn9C)CC6)C7)CC5)nc4c3F)c12
Activity [1]: Weak_effect; Compound Showed Weaker Potency In Antiproliferative Activity Compared To Mrtx1133 | inhibition in vivo at 10 mg/kg [2]: 30.9% | Activity [3]: inactive | Activity [4]: 11% | half-life at 1 µM [5]: 165 h | Activity [6]: inactive | clearance [7]: 39 mL/min/kg | Activity [8]: 95% | Activity [9]: 92% | IC50 [10]: 3.23 nM | inhibition in vivo at 0.1 mg/kg [11]: 81.4% | Activity [12]: Active; Compound Showed Stronger Antiproliferative Activity Compared To Mrtx1133 | IC50 [13]: 0.19 nM | inhibition (INH) [14]: Not_active | Activity [15]: Active | fraction unbound at 2 µM [16]: < 0.05 | Activity [17]: Non-toxic | fraction unbound at 2 µM [18]: < 0.05 | Vd [19]: 15.8 L/kg | Activity [20]: Weak_effect | inhibition in vivo at 10 mg/kg [21]: 94.7% | concentration at 6 h [22]: 270 ng/mL | inhibition (INH) [23]: Not_active | inhibition in vivo at 3 mg/kg [24]: 42.9% | Activity [25]: Active | inhibition in vivo at 3 mg/kg [26]: 96.9% | Activity [27]: 6.1% | half-life [28]: 94.6 h | concentration at 6 h [29]: 1040 ng/g | Activity [30]: Weak_effect | IC50 [31]: 2.7 nM
